Source: patent publication US11365220B2, “Methods of making anti-GP41 antibody-specific capture agents” (California Institute of Technology, priority 2013, dated 2022)

Test system: 4B3
Details: stored under N2 at 25° C., 37° C., or 57° C. for 58 days; 10 nM 4B3 spiked in 1% v/v human serum
Protocol: Small amounts of (iii) were stored under N2 at 25° C., 37° C., or 57° C. for 58 days. […] The remaining samples were lyophilized and used in a single point sandwich ELISA. Streptavidin-coated 96-well plates were saturated with the samples of (iii) recovered from the storage experiments using 1 μM solutions in TBS. The plates were blocked with 5% w/v dry milk in TBS, then incubated with either 1% v/v human serum or 10 nM 4B3 spiked in 1% v/v human serum in 0.5% w/v dry milk in TBS at room temperature for 1 hr. Bound antibody was probed with HPR-conjugated mouse monoclonal antibody to human IgG Fc diluted 1:15,000 in 0.5% w/v dry milk in TBS. The colorimetric assay was developed with TMB substrate, then quenched with 1 M H2SO4 and read at 450 nm.

Q: How did the “ELISA performance after storage” value turn out when “Biotin-PEG5-IWCGSGKLICTTA-Pra-(TZ-Az4-eihny-CONH2)-ICTTA-CONH2 [(iii)]” was run?
A: no detectable loss of performance
